The structures appear in SMILES notation. Like-named read-outs stand apart in the source and are kept apart here.

The source of these data is patent publication US6727264B1 (Synaptic Pharmaceutical Corporation, priority 2001, dated 2004).

The test addresses rat MCH-1 (Rattus norvegicus, UniProt P97639). The test can be described thus: Radioligand binding assay at cloned rat MCH1 receptor ([3H] Compound A). The arrangement: host or cells: Peak rapid 293 (Peakr293) cells, transient calcium phosphate transfection, membranes. The following applies: cloned rat MCH1 receptor, 0.08 nM [3H] Compound A, read-out: Ki (nM) rMCH1.

Sequence of rat MCH-1 (P97639 whole entry): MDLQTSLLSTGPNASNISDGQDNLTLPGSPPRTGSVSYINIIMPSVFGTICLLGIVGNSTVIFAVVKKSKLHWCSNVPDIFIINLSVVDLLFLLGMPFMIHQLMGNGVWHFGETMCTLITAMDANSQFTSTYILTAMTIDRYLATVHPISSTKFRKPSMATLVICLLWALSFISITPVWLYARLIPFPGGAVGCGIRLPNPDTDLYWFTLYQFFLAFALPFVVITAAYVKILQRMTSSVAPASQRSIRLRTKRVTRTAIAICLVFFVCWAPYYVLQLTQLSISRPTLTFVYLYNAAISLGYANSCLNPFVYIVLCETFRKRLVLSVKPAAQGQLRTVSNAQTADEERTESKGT

For `CC(C)C(=O)Nc1cccc(C2CCN(Cc3ccc4c(ccn4-c4ccccc4F)c3)CC2)c1` [Example 852], the Ki – broadly, the dissociation constant of the complex between target and ligand, obtained from inhibition or displacement – (Peakr293 cell membranes) is 14.5 nM.

Turning to `O=C(CCCCN1CCC(c2cccc(NC(=O)C3CC3)c2)CC1)c1ccc(F)cc1` [Example 551], under “Peakr293 cell membranes”, the Ki came to 21.6 nM.

For `Cc1ccccc1NC(=S)NCCCN1CCC(c2cccc(NC(=O)C(C)C)c2)CC1` [Example 615], the Ki (Peakr293 cell membranes) was found to be 210 nM.

On to `Cc1ccc2[nH]c(-c3ccccc3Cl)c(CCCN3CCC(c4cccc(NC(=O)C(C)C)c4)CC3)c2c1` [Example 736], for which the Ki (Peakr293 cell membranes) was 5.7 nM.

For `CC(C)C(=O)Nc1ccc(OC(F)(F)F)cc1C1CCN(CCCC(c2ccc(F)cc2)c2ccc(F)cc2)CC1` [Example 277], the Ki (membranes from Peakr293 cells) is 118 nM.

`CC(C)C(=O)Nc1cccc(C2CCN(Cc3cn(S(=O)(=O)c4ccccc4)c4ccccc34)CC2)c1` [Example 227]: the inhibition constant Ki (membranes from Peakr293 cells) came to 262 nM.

For the compound `CC(C)C(=O)Nc1cccc(C2CCN(Cc3cccc(Oc4ccc(Cl)c(Cl)c4)c3)CC2)c1` [Example 206], the Ki (membranes from Peakr293 cells) was determined as 17.7 nM.

Consider `CC(C)C(=O)Nc1cccc(C2CCN(CCCC(O)c3ccccc3)CC2)c1` (centres unmarked) [Example 279], for which the Ki (membranes from Peakr293 cells) was 74.5 nM.

With `CC(C)C(=O)Nc1cccc(C2CCN(CCCCCN3C(=O)OC[C@@H]3c3ccc(F)c(F)c3)CC2)c1` [Example 574], the Ki (Peakr293 cell membranes) amounted to 87.1 nM.

With `Cc1noc(C)c1S(=O)(=O)N[C@@H](CCN1CCC(c2cccc(NC(=O)C(C)C)c2)CC1)c1ccccc1` [Example 602], the inhibition constant (Ki) (Peakr293 cell membranes) was 44.6 nM.

Take `CC(C)C(=O)Nc1cccc(C2CCN(CCCc3c(-c4ccccc4Cl)[nH]c4ccc(OC(F)(F)F)cc34)CC2)c1` [Example 731]: where the note is “Peakr293 cell membranes”, the Ki stood at 9.9 nM.

On to `CC(C)C(=O)Nc1cccc(C2CCN(CCCNC(=O)Cc3ccc(F)cc3)CC2)c1` [Example 639], for which, under “Peakr293 cell membranes”, the Ki amounted to 36.3 nM.

As for `CC(C)C(=O)Nc1cccc(C2CCN(CCCCCc3c(-c4ccccc4)n(C)c4ccccc34)CC2)c1` [Example 395], the Ki (membranes from Peakr293 cells) came out at 2.4 nM.

For the compound `CCn1c2ccccc2c2cc(CN3CCC(c4ccc(C)c(NC(=O)C(C)C)c4)CC3)ccc21` [Example 268], the inhibition constant (Ki) (membranes from Peakr293 cells) is 20.3 nM.

`CC(C)C(=O)Nc1cccc(C2CCN(Cc3cn(-c4ccccc4)c4c(Cl)cccc34)CC2)c1` [Example 512]: the Ki (Peakr293 cell membranes) came to 42.7 nM.

For `CC(C)C(=O)Nc1cccc(C2CCN(CCCCCCNC(=O)c3cccnc3Oc3ccccc3)CC2)c1` [Example 627], the Ki (Peakr293 cell membranes) turned out to be 109 nM.

Take `O=C(CCCCN1CCC(c2cccc(NC(=O)C3CC3)c2)CC1)c1ccccc1F` [Example 563]: the Ki (Peakr293 cell membranes) was found to be 50.2 nM.

Turning to `CC(C)C(=O)Nc1cccc(C2CCN(CCCCCC(Oc3ccc(Br)cc3)c3ccccc3)CC2)c1` (centres unmarked) [Example 896], the Ki (Peakr293 cell membranes) turned out to be 30.3 nM.

For `CC(C)C(=O)Nc1cccc(C2CCN(Cc3cn(-c4ccccc4)c4cc(Cl)ccc34)CC2)c1` [Example 503], the Ki (Peakr293 cell membranes) amounted to 6 nM.

`CC(C)C(=O)Nc1cccc(C2CCN(CCC(Oc3ccc(C(F)(F)F)cc3)c3ccc(Br)cc3)CC2)c1` (centres unmarked) [Example 152]: the inhibitory constant (Ki) (membranes from Peakr293 cells) was found to be 13.3 nM.

For the compound `CC(C)C(=O)Nc1cccc(C2CCN(CCC(Oc3ccccc3)c3ccc(Cl)cc3)CC2)c1` (centres unmarked) [Example 180], the Ki (membranes from Peakr293 cells) is 9.7 nM.

In the case of `CC(C)C(=O)Nc1cccc(C2CCN(Cc3ccc4c(ccn4-c4cccc(Cl)c4Cl)c3)CC2)c1` [Example 854], the Ki (Peakr293 cell membranes) came out at 13.8 nM.

Consider `CC(C)C(=O)Nc1cccc(C2CCN(CCC(Oc3ccc(Cl)c(Cl)c3)c3ccc(F)cc3)CC2)c1` (centres unmarked) [Example 136], for which the Ki (membranes from Peakr293 cells) came to 15.9 nM.

With `CC(C)C(=O)Nc1cccc(C2CCN(CCCCCCC(=O)c3ccccc3)CC2)c1` [Example 528], where the note is “Peakr293 cell membranes”, the Ki is 115 nM.

Regarding `CC(C)C(=O)Nc1cccc(C2CCN(CCC(=O)c3ccc4c(c3)CCC4)CC2)c1` [Example 120], the inhibition constant (Ki) (membranes from Peakr293 cells) was found to be 31.1 nM.

As for `CC(C)C(=O)Nc1cccc(C2CCN(Cc3c[nH]c4ccc(Br)cc34)CC2)c1` [Example 526], for the setting “Peakr293 cell membranes”, the Ki was determined as 411 nM.

Regarding `COc1ccc(OC(CCN2CCC(c3cccc(NC(=O)C(C)C)c3)CC2)c2ccc(Cl)cc2)cc1` (centres unmarked) [Example 130], the inhibition constant Ki (membranes from Peakr293 cells) is 6 nM.

For `Cc1cccc2c(CCCN3CCC(c4cccc(NC(=O)C(C)C)c4)CC3)c(-c3ccc(Cl)cc3)[nH]c12` [Example 719], for the setting “Peakr293 cell membranes”, the Ki came out at 14.9 nM.

Consider `CC(C)C(=O)Nc1cccc(C2CCN(Cc3ccc4nsnc4c3)CC2)c1` [Example 232], for which the Ki (membranes from Peakr293 cells) stood at 431 nM.

Regarding `CC(C)C(=O)Nc1cccc(C2CCN(CCc3cccc4ccccc34)CC2)c1` [Example 801], the Ki (Peakr293 cell membranes) turned out to be 311 nM.

As for `CC(C)C(=O)Nc1cccc(C2CCN(Cc3ccc4c(ccn4-c4ccccc4-c4ccccc4)c3)CC2)c1` [Example 846], the Ki (Peakr293 cell membranes) amounted to 18.4 nM.

Take `Cc1ccc2[nH]c(-c3ccccc3Br)c(CCCN3CCC(c4cccc(NC(=O)C(C)C)c4)CC3)c2c1` [Example 785]: the Ki (Peakr293 cell membranes) amounted to 22.7 nM.

For the compound `Cc1onc(-c2c(F)cccc2Cl)c1C(=O)OCCCCN1CCC(c2cccc(NC(=O)C(C)C)c2)CC1` [Example 291, 4-{4-[3-(ISOBUTYRYLAMINO)PHENYL]-1-PIPERIDINYL}BUTYL 3-(2-CHLORO-6-FLUOROPHENYL)-5-METHYL-4-ISOXAZOLECARBOXYLATE], the Ki (membranes from Peakr293 cells) was found to be 24.3 nM.

For the compound `CC(C)C(=O)Nc1cccc(C2CCN(CCCNC(=O)NCc3ccccc3)CC2)c1` [Example 616], for the setting “Peakr293 cell membranes”, the Ki came to 406 nM.

Consider `CC(C)C(=O)Nc1cccc(C2CCN(CCCCNC(=O)c3ccc(F)c(F)c3)CC2)c1` [Example 658], for which the Ki (Peakr293 cell membranes) was determined as 12 nM.

Regarding `CC(C)C(=O)Nc1cccc(C2CCN(Cc3cccc4c3ccn4-c3ccc(F)cc3F)CC2)c1` [Example 866], the Ki (Peakr293 cell membranes) was 169 nM.

As for `Cc1nc(-c2ccccc2)ncc1CN1CCC(c2cccc(NC(=O)C(C)C)c2)CC1` [Example 231], where the note is “membranes from Peakr293 cells”, the inhibition constant (Ki) was found to be 596 nM.

Take `CC(C)C(=O)Nc1cccc(C2CCN(Cc3c[nH]c4cc([N+](=O)[O-])ccc34)CC2)c1` [Example 507]: the inhibitory constant (Ki) (Peakr293 cell membranes) stood at 57.9 nM.

For the compound `Cc1ccccc1-n1cc(CN2CCC(c3cccc(NC(=O)C(C)C)c3)CC2)c2ccccc21` [Example 452], the Ki (Peakr293 cell membranes) is 12.7 nM.

For `CC(C)C(=O)Nc1cccc(C2CCN(CCCc3c(-c4ccccc4Br)[nH]c4c3ccc3ccccc34)CC2)c1` [Example 781], the Ki (Peakr293 cell membranes) turned out to be 7.6 nM.

As for `CC(C)C(=O)Nc1cccc(C2CCN(CCCCC(O)c3cccc(F)c3)CC2)c1` (centres unmarked) [Example 815], the Ki (Peakr293 cell membranes) is 127 nM.

Consider `COc1cccc(O[C@@H](CN2CCC(c3cccc(NC(=O)C(C)C)c3)CC2)c2ccccc2)c1` [Example 338], for which, under “membranes from Peakr293 cells”, the Ki turned out to be 844 nM.

Regarding `Cc1onc(-c2c(Cl)cccc2Cl)c1C(=O)OCCCN1CCC(c2cccc(NC(=O)C(C)C)c2)CC1` [Example 288, 3-{4-[3-(ISOBUTYRYLAMINO)PHENYL]-1-PIPERIDINYL}PROPYL 3-(2,6-DICHLOROPHENYL)-5-METHYL-4-ISOXAZOLECARBOXYLATE], the Ki (membranes from Peakr293 cells) worked out at 30.2 nM.

Take `CC(C)C(=O)Nc1cccc(C2CCN(Cc3cn(-c4ccc(Cl)cc4)c4ccccc34)CC2)c1` [Example 459]: for the setting “Peakr293 cell membranes”, the Ki was 10.4 nM.

`CC(C)C(=O)Nc1cccc(C2CCN(CCCCCC(Oc3ccc(Cl)cc3)c3ccc(F)cc3)CC2)c1` (centres unmarked) [Example 901]: the Ki (Peakr293 cell membranes) amounted to 8.2 nM.

For the compound `COc1ccc(C(CCN2CCC(c3cccc(NC(=O)C(C)C)c3)CC2)Oc2ccccc2C(C)=O)cc1` (centres unmarked) [Example 185], the inhibition constant (Ki) (membranes from Peakr293 cells) was found to be 20.6 nM.

With `Cc1cc(CN2CCC(c3cccc(NC(=O)C(C)C)c3)CC2)c(C)n1-c1cccc(C(F)(F)F)c1` [Example 109], the Ki (membranes from Peakr293 cells) is 20.9 nM.

For `CC(=O)c1cccc(O[C@@H](CCN2CCC(c3cc(NC(=O)C(C)C)ccc3C)CC2)c2ccccc2)c1` [Example 187], the Ki (membranes from Peakr293 cells) stood at 15.6 nM.

On to `O=C(CCCCN1CCC(c2cccc(NC(=O)C3CC3)c2)CC1)c1ccccc1C(F)(F)F` [Example 560], for which the Ki (Peakr293 cell membranes) came to 55.7 nM.

For the compound `CC(C)C(=O)Nc1cccc(C2CCN(CCCc3c(-c4cccc(F)c4)n(-c4ccccc4)c4ccccc34)CC2)c1` [Example 702], the Ki (Peakr293 cell membranes) was found to be 27 nM.

As to `CC(C)C(=O)Nc1cccc(C2CCN(CCCc3c(-c4ccccc4)[nH]c4c3ccc3ccccc34)CC2)c1` [Example 388], the Ki (membranes from Peakr293 cells) was found to be 20.7 nM.

As for `CC(C)C(=O)Nc1cccc(C2CCN(Cc3cc4ccccc4n3C)CC2)c1` [Example 829], the Ki (Peakr293 cell membranes) is 228 nM.

With `CC(C)C(=O)Nc1cccc(C2CCN(CC[C@H](NC(=O)c3ccc(N(C)C)cc3)c3ccccc3)CC2)c1` [Example 322], under “membranes from Peakr293 cells”, the Ki was 99.9 nM.

For the compound `CCC(=O)Nc1cccc(C2CCN(CCCCC(=O)c3cccc(F)c3)CC2)c1` [Example 555], the Ki (Peakr293 cell membranes) came out at 50.3 nM.

For the compound `CC(C)C(=O)Nc1cccc(C2CCN(CCCc3c(-c4ccc(Br)cc4)n(C)c4ccccc34)CC2)c1` [Example 759], under “Peakr293 cell membranes”, the Ki was 9.3 nM.

As for `CC(C)C(=O)Nc1cccc(C2CCN(CCCc3c(-c4ccccc4Cl)n(-c4ccccc4)c4ccccc34)CC2)c1` [Example 734], where the note is “Peakr293 cell membranes”, the Ki came out at 28.6 nM.

Take `CC(C)C(=O)Nc1cccc(C2CCN(CCCc3c[nH]c4c3ccc3ccccc34)CC2)c1` [Example 413]: the Ki (Peakr293 cell membranes) is 76.8 nM.

`Cc1[nH]c2ccccc2c1CN1CCC(c2cccc(NC(=O)C(C)C)c2)CC1` [Example 430]: the inhibitory constant (Ki) (Peakr293 cell membranes) was found to be 647 nM.

With `CC(C)C(=O)Nc1cccc(C2CCN(CCCc3c(-c4ccc(I)cc4)[nH]c4ccccc34)CC2)c1` [Example 750], the Ki (Peakr293 cell membranes) is 2.6 nM.

`O=C(CCCCN1CCC(c2cccc(NC(=O)C3CC3)c2)CC1)c1cccc(F)c1` [Example 549]: for the setting “Peakr293 cell membranes”, the Ki worked out at 39.7 nM.

`CC(C)C(=O)Nc1cccc(C2CCN(CCCCCC(Oc3ccc(F)cc3)c3ccc(Cl)cc3)CC2)c1` (centres unmarked) [Example 902]: the Ki (Peakr293 cell membranes) is 11 nM.

As to `Cc1cccc2c(CN3CCC(c4cccc(NC(=O)C(C)C)c4)CC3)cn(-c3ccccc3)c12` [Example 509], the Ki (Peakr293 cell membranes) was 24.3 nM.

Regarding `CC(C)C(=O)Nc1cccc(C2CCN(CCCCCC(Oc3ccc(F)cc3)c3ccc(F)cc3)CC2)c1` (centres unmarked) [Example 897], under “Peakr293 cell membranes”, the Ki turned out to be 6.4 nM.

Turning to `Cc1ccc(C(=O)CCCN2CCC(c3cccc(NC(=O)C(C)C)c3)CC2)cc1` [Example 945], for the setting “Peakr293 cell membranes”, the Ki is 31.2 nM.

As for `CC(C)C(=O)Nc1cccc(C2CCN(CCCCCC(Oc3cc(C(F)(F)F)ccc3F)c3ccc(Cl)cc3)CC2)c1` (centres unmarked) [Example 914], the inhibition constant (Ki) (Peakr293 cell membranes) was found to be 17.3 nM.
